Columns and labels:
Format in all cases: cell-based, human
[1] = tested on: PBMC from grass pollen allergic patients; experiment: Expansion of Th2 cell phenotypes on allergen stimulation, Flow Cytometry; conditions: in the presence of allergen; 6 days
Method: FIG. 3. Treatment with INNA-001 suppresses the expansion of pro-allergic Th2 cell phenotypes in response to allergen stimulation. PBMC from grass pollen allergic patients (N=12) were cultured for 6 days with or without allergen (Phlp at 10 μg/mL) and with or without a range of concentrations of INNA-001. After 6 days, the cells were harvested, washed and activated with phorbol 12-myristate 13-acetate (25 ng/mL) and ionomycin (1 μg/mL) for 5 hours. Brefeldin A (10 μg/mL) was added for the final 4 hours of stimulation. Subsequently the cells were washed and stained for anti-human CD4, CD27, CRTH2, CD49d, CD161, IL-13 and IL-4. Analysis was performed by Flow Cytometry. Proliferation of cells was measured using CellTrace violet. All data shown are mean±SEM. Graphs represent normalised changes from baseline (untreated). Statistical analysis was performed using ANOVA with Dunn's multiple comparisons test for within-group comparisons (*p<0.05, **p<0.01, ***p<0.001 for the +Phlp group).
FIG. 4. […]
PBMC from patients with allergy to Timothy grass pollen (Phleum pratense) were cultured for 6 days in the presence or absence of allergen and INNA-001 or control compounds. Allergen-induced proliferation and cytokine production were assessed and the phenotype of proliferating allergen-stimulated T cells was determined.

[2] = tested on: PBMC from grass pollen allergic patients; experiment: CD4+ T regulatory cell induction in PBMC, 6 days, Flow Cytometry / FlowSOM
Method: FIG. 14. […] PBMC from grass pollen allergic patients were cultured for 6 days with or without allergen (Phlp at 10 μg/mL) and with or without a range of concentrations of INNA-001 or Pam2CSK4 (0.3, 3 and […]). At day 6 the cells were harvested, washed and stained for anti-human CD4, CD25, CD127 and Foxp3. Analysis was performed by Flow Cytometry. All data shown are mean±SEM. Graphs represent changes from baseline (untreated). Statistical analysis was performed using ANOVA with Dunn's multiple comparisons test for within-group comparisons. Mann-Whitney U test was performed for between-group comparisons. Statistical significance in the +Phlp group: *p<0.05, **p<0.01, ***p<0.001.
FIG. 15. […] PBMC from grass pollen allergic patients were cultured for 6 days with or without allergen (Phlp at 10 μg/mL) and with or without a range of concentrations of INNA-001 or Pam2CSK4 (0.3, 3 and 10 μg/ml). At day 6 the cells were harvested, washed and stained for anti-human CD4, CD25, CD127, Foxp3 and CD45RO. Analysis was performed by Flow Cytometry. All data shown are mean±SEM. Graphs represent changes from baseline (untreated) (A) naive FoxP3^+CD25^+CD127^−CD4^+CD45RO^− cells, and (B) memory FoxP3^+CD25^+CD127^−CD4^+CD45RO^+ cells. Statistical analysis was performed using ANOVA with Dunn's multiple comparisons test for within-group comparisons. Mann-Whitney U test was performed for between-group comparisons. Statistical significance in the +Phlp group: *p<0.05, **p<0.01, ***p<0.001.
FIG. 16. […] PBMC from grass pollen allergic patients (N=3 for INNA=003 & INNA-006, N=7 for INNA-001 & Pam2CSK4) were cultured for 6 days with or without allergen (Phlp at 10 μg/mL) and with or without a range of concentrations of INNA-001, INNA-003, INNA-006 or Pam2CSK4 (0.3, 3 and 10 μg/mL). At day 6 the cells were harvested, washed and stained for anti-human CD4, CD25, CD127, Foxp3 and CD45RO. Analysis was performed by Flow Cytometry. All data shown are mean±SEM.
FIG. 17. […] PBMC from grass pollen allergic patients were cultured for 6 days with allergen (Phlp at 10 μg/mL) and with or without INNA-001 or Pam2CSK4 (3 μg/mL). At 6 days the cells were harvested, washed and stained for anti-human Foxp3, CD4, CD25, CD45RO, CD127, CTLA4 and SABT1. Analysis was performed by Flow Cytometry. The data were further analysed using unbiased FlowSOM technique. Foxp3^+ T regulatory cell metacluster identification following treatment with INNA-001 A) in the presence of Phlp (N=3) or B) absence of Phlp (N=3). C) Heatmap display of the marker expression profile of the identified metaclusters (N=3). D) Quantification of population abundance of the metaclusters 3, 5 and 9 following INNA-001 and Pam2CSK4 treatment in the presence of Phlp (N=3). […]

[3] = tested on: PBMC from grass pollen allergic patients; experiment: IL-10 producing monocytes after 24 hours PBMC culture, Flow Cytometry
Method: FIG. 12. […] PBMC from grass pollen allergic patients were cultured for 24 hours with or without allergen (Phlp at 10 μg/mL) and with or without a range of concentrations of INNA-001 or Pam2CSK4 (0.3, 3 and 10 μg/mL). At 24 hours the cells were harvested, washed and stained for anti-human CD14, CD16 and IL-10. Analysis was performed by Flow Cytometry. A) Flow Cytometry representative plots (N=3) for percentage of IL-10-producing subpopulation of non-classical (CD14^low CD16^+) monocytes after treatment with […] of TLR2 agonists (INNA-001 or Pam2CSK4) in the presence of Phlp. B) Quantification (N=12) of IL-10 producing non-classical (CD14^low CD16^+) and C) Quantification (N=12) of IL-10 producing classical (CD14^highCD16^−) monocytes. All data shown are mean±SEM. Graphs represent changes from baseline (untreated). Statistical analysis was performed using ANOVA with Dunn's multiple comparisons test for within-group comparisons. Mann-Whitney U test was performed for between-group comparisons. Statistical significance in the +Phlp group: *p<0.05, **p<0.01, ***p<0.001.
FIG. 13. […] PBMC from grass pollen allergic patients (N=3) were cultured for 24 hours with or without allergen (Phlp at 10 μg/mL) and with or without a range of concentrations of INNA-001, INNA-003 or INNA-006 (0.3, 3, 10 and 30 μg/ml). At 24 hours the cells were harvested, washed and stained for anti-human CD14, CD16 and IL-10. Analysis was performed by Flow Cytometry. All data shown are mean±SEM.
To examine it, PBMC from patients with allergy to Timothy grass pollen (Phleum pratense) were cultured with INNA-001 or control TLR2 agonist compounds, in the presence or absence of allergen, for 24 hours. At 24 hours the cells were harvested, washed and stained for IL-10 and the monocyte markers CD16 and CD14, using relevant anti-human antibodies. Analysis of the monocyte populations (classical and non-classical monocytes) was performed by Flow Cytometry. Lymphoid cells were excluded using antibodies against lineage markers CD3, CD4, CD15, CD19, CD56.

[4] = tested on: PBMC from grass pollen allergic patients; experiment: IL-6 production by PBMC at 24 hours, ELISA
Method: (§1) FIG. 9. […] PBMC from grass pollen allergic patients (N=3) were cultured for 24 hours with or without a range of allergen concentrations (Phlp at […]), in the presence or absence of a range of INNA-001, INNA-006 or Pam2CSK4 concentrations (from 0.01 to 10 μg/mL). The culture supernatants were harvested and the levels of IL-10 (A) and IL-6 (B) were measured by ELISA. All data shown are mean±SEM.
(§2) PBMC from patients with allergy to Timothy grass pollen (Phleum pratense) or cat (Fel d 1) were cultured for 24 hours, 72 hours or 6 days, in the presence or absence of allergen and INNA-001, INNA-006 or Pam3CSK4 (a TLR2 agonist known to induce IL-10 production) and the production of IL-10 and IL-6 (used as a control, TLR2-induced cytokine) was measured in the cell culture supernatants.

[5] = tested on: PBMC from grass pollen allergic patients; experiment: Kinetics of IL-10 production by PBMC, ELISA
Method: as §1
(§3) FIG. 10. […] PBMC from grass pollen allergic patients (N=3) were cultured for 24 hours, 72 hours or 6 days, with or without allergen (Phlp 10 mg/mL), in the presence or absence of a range of INNA-001, INNA-006 or Pam3CSK4 concentrations (0.3, 3, 10 and 30 μg/mL). The culture supernatants were harvested and the levels of IL-10 were measured by ELISA. All data shown are mean±SEM.
as §2

[6] = tested on: PBMC from cat allergic patients; experiment: IL-10 production by PBMC of cat allergic patients, ELISA; conditions: 24 hours, 72 hours, 6 days; cat allergen Feld 1
Method: as §3, with “11.” for “10.”, “cat” for “grass pollen”, “(Feld 1 0.1 or […]),” for “(Phlp 10 mg/mL),”, “Pam2CSK4” for “Pam3CSK4”, “Elisa.” for “ELISA. All data shown are mean±SEM.”
as §2

Substance	number of proliferating IL-13 producing-Th2 (CD4+CD27-CRTH2+IL-13+) cells [1]	memory FoxP3+CD25+CD127-CD4+CD45RO+ T regulatory cells [2]	naive FoxP3+CD25+CD127-CD4+CD45RO- T regulatory cells [2]	total number of CD4+CD25+CD127- regulatory T cells [2]	expansion of Foxp3+ T regulatory cell metaclusters MC3, MC5 and MC9 (FlowSOM) ([2]; 3 μg/mL)	number of IL-10+ non-classical CD14low/CD16+ monocytes ([3]; 24 hours)	numbers of IL-10+ classical CD14high/CD16- monocytes ([3]; 24 hours)	influence of allergen on IL-10+ classical monocytes ([3]; with versus without allergen)	IL-6 generation at 24 hours [4]	influence of parallel allergen stimulation on IL-6 production ([4]; with versus without allergen)	IL-10 generation at 24 hours ([5]; 24 hours, presence or absence of allergen)	IL-10 levels at 72 hours and 6 days ([5]; 72 hours, 6 days)	influence of parallel allergen stimulation on IL-10 production ([5]; with versus without allergen)	IL-10 upregulation in PBMC of cat allergic subjects [6]
Pam2CSK4	also reduced the number of proliferating Th2 (CD4+CD27−CRTH2+IL-13+) cells, but to a lesser degree than INNA-001	Analogous	Analogous	Analogous results	the same metaclusters were also found prominent	increase, although slightly less pronounced	lower increase	independent of the presence of allergen						
Pam3CSK4									strong IL-6 generation	did not appear to influence	rapid, dose-dependent generation of IL-10	remained high, but with declining levels	did not appear to considerably influence	stimulated dose-dependent upregulation of IL-10
